# Measurements from patent US9725468B2, “C5-spiro iminothiazine dioxides as BACE inhibitors, compositions, and their use” (Merck Sharp & Dohme Corp., priority 2013, dated 2017).
# Key:
# [1] = biological target: T1, purified human autoBACE-2 (Homo sapiens, UniProt Q9Y5Z0); experiment: BACE-2 Assay (BACE-HTRF assay); assay type: biochemical; settings: Ki calculated from IC50 using the Cheng-Prusoff equation; QSY7-EISEVNLDAEFC-Eu-amide substrate 200 nM, pH 5.0; read-out: BACE2 Ki
# T1 sequence (Q9Y5Z0 63-473 limits assumed): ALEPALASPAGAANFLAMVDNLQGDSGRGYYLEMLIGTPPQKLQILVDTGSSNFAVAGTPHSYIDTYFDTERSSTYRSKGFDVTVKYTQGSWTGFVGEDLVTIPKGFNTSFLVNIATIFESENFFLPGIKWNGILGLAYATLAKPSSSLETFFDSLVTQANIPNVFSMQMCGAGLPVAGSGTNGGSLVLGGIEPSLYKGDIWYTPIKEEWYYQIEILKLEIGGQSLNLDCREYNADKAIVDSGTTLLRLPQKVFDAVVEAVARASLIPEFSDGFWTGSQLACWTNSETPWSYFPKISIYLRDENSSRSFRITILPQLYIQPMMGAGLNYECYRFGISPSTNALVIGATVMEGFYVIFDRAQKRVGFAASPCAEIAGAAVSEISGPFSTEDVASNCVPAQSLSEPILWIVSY
# Protocol: Inhibitor ICsos at purified human autoBACE-2 are determined in a time-resolved endpoint proteolysis assay that measures hydrolysis of the QSY7-EISEVNLDAEFC-Eu-amide FRET peptide substrate (BACE-HTRF assay). BACE-mediated hydrolysis of this peptide results in an increase in relative fluorescence (RFU) at 620 nm after excitation with 320 nm light. Inhibitor compounds, prepared at 3× the desired final concentration in 1×BACE assay buffer (20 mM sodium acetate pH 5.0, 10% glycerol, 0.1% Brij-35) supplemented with 7.5% DMSO are preincubated with an equal volume of autoBACE-2 enzyme diluted in 1×BACE assay buffer (final enzyme concentration 1 nM) in black 384-well NUNC plates for 30 minutes at 30° C. The assay is initiated by addition of an equal volume of the QSY7-EISEVNLDAEFC-Eu-amide substrate (200 nM final concentration, […]) prepared in 1×BACE assay buffer supplemented with 7.5% DMSO and incubated for 90 minutes at 30° C. DMSO is present at 5% final concentration in the assay. Following laser excitation of sample wells at 320 nm, the fluorescence signal at 620 nm is collected for 400 ms following a 50 μs delay on a RUBYstar HTRF plate reader (BMG Labtechnologies). Raw RFU data is normalized to maximum (1.0 nM BACE/DMSO) and minimum (no enzyme/DMSO) RFU values. IC50s are determined by nonlinear regression analysis (sigmoidal dose response, variable slope) of percent inhibition data with minimum and maximum values set to 0 and 100 percent respectively. Similar IC50s are obtained when using raw RFU data. The Ki values are calculated from the IC50 using the Cheng-Prusoff equation.
# [2] = biological target: soluble human BACE1 catalytic domain (Homo sapiens, UniProt P56817); experiment: BACE1 HTRF FRET Assay; assay type: biochemical; settings: Ki calculated from IC50 using the Cheng-Prusoff equation; QSY7-APPswe-Eu substrate 200 nM, pH 5.0
# Text: Na^+-Acetate pH 5.0; 1% Brij-35; Glycerol; Dimethyl Sulfoxide (DMSO); Recombinant human soluble BACE1 catalytic domain (>95% pure); APP Swedish mutant peptide substrate (QSY7-APP^swe-Eu): QSY7-EISEVNLDAEFC-Europium-amide.
# A homogeneous time-resolved FRET assay can be used to determine IC50 values for inhibitors of the soluble human BACE1 catalytic domain. This assay monitors the increase of 620 nm fluorescence that resulted from BACE1 cleavage of an APPswedish APP^swe mutant peptide FRET substrate (QSY7-EISEVNLDAEFC-Europium-amide). This substrate contains an N-terminal QSY7 moiety that serves as a quencher of the C-terminal Europium fluorophore (620 nm Em). In the absence of enzyme activity, 620 nm fluorescence is low in the assay and increased linearly over 3 hours in the presence of uninhibited BACE1 enzyme. Inhibition of BACE1 cleavage of the QSY7-APP^swe-Eu substrate by inhibitors is manifested as a suppression of 620 nm fluorescence.
# Varying concentrations of inhibitors at 3× the final desired concentration in a volume of 10 ul are preincubated with purified human BACE1 catalytic domain (3 nM in 10 μl) for 30 minutes at 30° C. in reaction buffer containing 20 mM Na-Acetate pH 5.0, 10% glycerol, 0.1% Brij-35 and 7.5% DSMO. Reactions are initiated by addition of 10 μl of 600 nM QSY7-APP^swe-Eu substrate (200 nM final) to give a final reaction volume of 30 μl in a 384 well Nunc HTRF plate. The reactions are incubated at 30° C. for 1.5 hours. The 620 nm fluorescence is then read on a Rubystar HTRF plate reader (BMG Labtechnologies) using a 50 millisecond delay followed by a 400 millisecond acquisition time window. Inhibitor IC50 values are derived from non-linear regression analysis of concentration response curves. Ki values are then calculated from IC50 values using the Cheng-Prusoff equation using a previously determined […] for the QSY7-APP^swe-Eu substrate at BACE1.
# soluble human BACE1 catalytic domain, sequence (P56817 75-416 limits assumed): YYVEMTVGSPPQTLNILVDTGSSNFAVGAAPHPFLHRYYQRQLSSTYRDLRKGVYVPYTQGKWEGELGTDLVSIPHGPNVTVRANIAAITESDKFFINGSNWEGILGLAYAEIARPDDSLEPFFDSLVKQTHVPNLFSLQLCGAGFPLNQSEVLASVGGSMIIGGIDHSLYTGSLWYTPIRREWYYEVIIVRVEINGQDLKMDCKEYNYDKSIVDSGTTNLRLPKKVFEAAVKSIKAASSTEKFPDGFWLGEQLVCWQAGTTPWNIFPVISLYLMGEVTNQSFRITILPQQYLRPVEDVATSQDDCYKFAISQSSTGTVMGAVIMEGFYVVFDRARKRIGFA
SMILES,Ki [1] [nM],Ki [2] [nM]
CC1(C)C(=N)N[C@@]2(CCOc3ccc(NC(=O)c4ccc(Cl)cn4)cc32)CS1(=O)=O [Example B-1],2,8
COc1ccc(C(=O)Nc2ccc3c(c2)[C@]2(CCO3)CS(=O)(=O)C(C)(C)C(=N)N2)nc1 [Example B-2],28,58
COCC(=O)Nc1ccc2c(c1)[C@]1(CCO2)CS(=O)(=O)C(C)(C)C(=N)N1 [Example B-3],59,391
CC1(C)C(=N)N[C@@]2(CCOc3ccc(NC(=O)C(F)F)cc32)CS1(=O)=O [Example B-4],115,1280
CC1(C)C(=N)N[C@@]2(CCOc3ccc(NC(=O)c4ccn(C(F)F)n4)cc32)CS1(=O)=O [Example C-1],1,3
Cc1nc(C(=O)Nc2ccc3c(c2)[C@]2(CCO3)CS(=O)(=O)C(C)(C)C(=N)N2)co1 [Example C-2],3,18
C#CCOc1cnc(C(=O)Nc2ccc3c(c2)[C@]2(CCO3)CS(=O)(=O)C(C)(C)C(=N)N2)cn1 [Example C-3],14,3
CC1(C)C(=N)N[C@@]2(CCOc3ccc(NC(=O)c4cnsn4)cc32)CS1(=O)=O [Example C-4],5,3
CC1(C)C(=N)N[C@@]2(CCOc3ccc(NC(=O)c4cc5ccccn5n4)cc32)CS1(=O)=O [Example C-5],49,223
CC1(C)C(=N)N[C@@]2(CCOc3ccc(NC(=O)c4ccc(C(F)(F)F)cn4)cc32)CS1(=O)=O [Example C-6],50,10
Cc1nc(C(=O)Nc2ccc3c(c2)[C@]2(CCO3)CS(=O)(=O)C(C)(C)C(=N)N2)no1 [Example C-7],4,47
CC1(C)C(=N)N[C@@]2(CCOc3ccc(NC(=O)c4cn5cc(C#N)ccc5n4)cc32)CS1(=O)=O [Example C-8],157,121
CC1(C)C(=N)N[C@@]2(CCOc3ccc(NC(=O)c4ccc(F)cn4)cc32)CS1(=O)=O [Example C-9],5,33
CC1(C)C(=N)N[C@@]2(CCOc3ccc(NC(=O)c4ccc(OC(F)F)cn4)cc32)CS1(=O)=O [Example C-10],22,8
CC1(C)C(=N)N[C@@]2(CCOc3ccc(NC(=O)c4ccc(OC(F)(F)F)cn4)cc32)CS1(=O)=O [Example C-11],41,10
CC1(C)C(=N)N[C@@]2(CCOc3ccc(NC(=O)c4cnc(OCCF)cn4)cc32)CS1(=O)=O [Example C-12],98,45
CC1(C)C(=N)N[C@@]2(CCOc3ccc(NC(=O)c4ccc(OCF)cn4)cc32)CS1(=O)=O [Example C-13],8,14
Cc1cn(C)nc1C(=O)Nc1ccc2c(c1)[C@]1(CCO2)CS(=O)(=O)C(C)(C)C(=N)N1 [Example C-14],1,15
CC1(C)C(=N)N[C@@]2(CCOc3ccc(NC(=O)c4ccc(C#N)cn4)cc32)CS1(=O)=O [Example C-15],9,3
CC1(C)C(=N)N[C@@]2(CCOc3ccc(NC(=O)c4ncc(C(F)(F)F)cn4)cc32)CS1(=O)=O [Example C-16],98,107
CC1(C)C(=N)N[C@@]2(CCOc3ccc(NC(=O)c4ncc(Cl)cc4F)cc32)CS1(=O)=O [Example C-17],2,8

SMILES,Ki [1] [nM],Ki [2] [nM]
CC#CCOc1ccc(C(=O)Nc2ccc3c(c2)[C@]2(CCO3)CS(=O)(=O)C(C)(C)C(=N)N2)nc1 [Example C-18],45,3
C#CCOc1ccc(C(=O)Nc2ccc3c(c2)[C@]2(CCO3)CS(=O)(=O)C(C)(C)C(=N)N2)nc1 [Example C-19],48,7
COc1cnc(C(=O)Nc2ccc3c(c2)[C@]2(CCO3)CS(=O)(=O)C(C)(C)C(=N)N2)c(C)c1 [Example C-20],3,20
COc1cnc(C(=O)Nc2ccc3c(c2)[C@]2(CCO3)CS(=O)(=O)C(C)(C)C(=N)N2)c(C)n1 [Example C-21],20,40
Cc1cc(C#N)cnc1C(=O)Nc1ccc2c(c1)[C@]1(CCO2)CS(=O)(=O)C(C)(C)C(=N)N1 [Example C-22],3,2
COc1cnc(C(=O)Nc2ccc3c(c2)[C@]2(CCO3)CS(=O)(=O)C(C)(C)C(=N)N2)cn1 [Example C-23],46,52
CC1(C)C(=N)N[C@@]2(CCOc3ccc(NC(=O)c4cnc(C(F)(F)F)cn4)cc32)CS1(=O)=O [Example C-24],184,39
CC1(C)C(=N)N[C@@]2(COCc3ccc(NC(=O)c4ccc(Cl)cn4)cc32)CS1(=O)=O [Example D-1],7,23
CC1(C)C(=N)N[C@@]2(COCc3ccc(NC(=O)c4ncc(C(F)(F)F)cn4)cc32)CS1(=O)=O [Example E-1],512,644
CC1(C)C(=N)N[C@@]2(COCc3ccc(NC(=O)c4cc5ccccn5n4)cc32)CS1(=O)=O [Example E-2],200,1200
CC1(C)C(=N)N[C@@]2(COCc3ccc(NC(=O)c4ccc(OC(F)(F)F)cn4)cc32)CS1(=O)=O [Example E-3],175,50
C#CCOc1cnc(C(=O)Nc2ccc3c(c2)[C@]2(COC3)CS(=O)(=O)C(C)(C)C(=N)N2)cn1 [Example E-4],72,20
Cc1cc(C#N)cnc1C(=O)Nc1ccc2c(c1)[C@]1(COC2)CS(=O)(=O)C(C)(C)C(=N)N1 [Example E-5],8,6
CC1(C)C(=N)N[C@@]2(COCc3ccc(NC(=O)c4ccc(C(F)(F)F)cn4)cc32)CS1(=O)=O [Example E-6],155,41
CC1(C)C(=N)N[C@@]2(COCc3ccc(NC(=O)c4ccn(C(F)F)n4)cc32)CS1(=O)=O [Example E-7],2,12
Cc1nc(C(=O)Nc2ccc3c(c2)[C@]2(COC3)CS(=O)(=O)C(C)(C)C(=N)N2)no1 [Example E-8],12,281
CC1(C)C(=N)N[C@@]2(COCc3ccc(NC(=O)c4cnsn4)cc32)CS1(=O)=O [Example E-9],23,171
COc1ccc(C(=O)Nc2ccc3c(c2)[C@]2(COC3)CS(=O)(=O)C(C)(C)C(=N)N2)nc1 [Example E-10],29,118
COc1cnc(C(=O)Nc2ccc3c(c2)[C@]2(COC3)CS(=O)(=O)C(C)(C)C(=N)N2)c(C)c1 [Example E-11],5,59
CC1(C)C(=N)N[C@@]2(COCc3ccc(NC(=O)c4cn5cc(C#N)ccc5n4)cc32)CS1(=O)=O [Example E-12],2950,556
